Measurements reported in ChEMBL document CHEMBL1139968, “Cytotoxic effects of C-glycosides in HOS and HeLa cell lines” (2007).

How the values were obtained:
[1] = test system: HeLa; assay: Antiproliferative activity against human HeLa cells by SRB assay; assay type: functional
[2] = test system: HOS; assay: Antiproliferative activity against human HOS cells by SRB assay; assay type: functional

Row | Structure (SMILES) | GI50 [1] | GI50 [2]
1 | c1ccc(COC[C@H]2O[C@@H]3C[C@@H]3[C@@H](OCc3ccccc3)[C@@H]2OCc2ccccc2)cc1 | > 50 µM | > 50 µM
2 | C[C@@H]1O[C@H](COCc2ccccc2)[C@@H](OCc2ccccc2)[C@H](OCc2ccccc2)[C@H]1O | > 50 µM | > 50 µM
3 | CC(C)C[C@@H]1O[C@H](COCc2ccccc2)[C@@H](OCc2ccccc2)[C@H](OCc2ccccc2)[C@H]1O | > 50 µM | 45.2 µM
4 | OCCC[C@@H]1O[C@H](COCc2ccccc2)[C@@H](OCc2ccccc2)[C@H](OCc2ccccc2)[C@H]1O | > 50 µM | > 50 µM
5 | CCC[C@@H]1O[C@H](CO)[C@@H](O)[C@H](O)[C@H]1O | > 50 µM | > 50 µM
6 | O[C@@H]1[C@@H](OCc2ccccc2)[C@H](OCc2ccccc2)[C@@H](COCc2ccccc2)O[C@@H]1CC1CCCCC1 | > 50 µM | 20.7 µM
7 | CCC[C@@H]1O[C@H](COCc2ccccc2)[C@@H](OCc2ccccc2)[C@H](OCc2ccccc2)C1=O | > 50 µM | > 50 µM
8 | CCCCOC[C@H]1O[C@@H](CCC)[C@H](O)[C@@H](OCCCC)C1OCCCC (some centres undefined) | > 50 µM | > 50 µM
9 | O=C1[C@H](Cc2ccccc2)O[C@H](COCc2ccccc2)[C@@H](OCc2ccccc2)[C@@H]1OCc1ccccc1 | > 50 µM | > 50 µM
10 | C[C@@H]1O[C@H](COCc2ccccc2)[C@@H](OCc2ccccc2)[C@H](OCc2ccccc2)C1=O | > 50 µM | > 50 µM
11 | CCCCOC[C@H]1O[C@@H](CCC)C(=O)[C@@H](OCCCC)[C@@H]1OCCCC | > 50 µM | > 50 µM
12 | CC[C@@H]1O[C@H](COCc2ccccc2)[C@@H](OCc2ccccc2)[C@H](OCc2ccccc2)C1=O | > 50 µM | 4.3 µM
13 | CCC[C@@H]1O[C@H](COCc2ccc3ccccc3c2)[C@@H](OCc2ccc3ccccc3c2)[C@H](OCc2ccc3ccccc3c2)[C@H]1O | > 50 µM | > 50 µM
14 | C=CC[C@@H]1O[C@H](COCc2ccccc2)[C@@H](OCc2ccccc2)[C@H](OCc2ccccc2)[C@H]1OCc1ccccc1 | > 50 µM | > 50 µM
15 | CC(=O)OC[C@H]1O[C@@H](Cc2ccccc2)[C@H](OC(C)=O)[C@@H](OCc2ccccc2)[C@@H]1OC(C)=O | > 50 µM | > 50 µM
16 | CC[C@@H]1O[C@H](COCc2ccccc2)[C@@H](OCc2ccccc2)[C@H](OCc2ccccc2)[C@H]1OC(C)=O | > 50 µM | > 50 µM
17 | c1ccc(COC[C@H]2O[C@H]3C[C@H]3[C@@H](OCc3ccccc3)[C@@H]2OCc2ccccc2)cc1 | > 50 µM | > 50 µM
18 | CC[C@H]1O[C@H](COCc2ccccc2)[C@@H](OCc2ccccc2)[C@H](OCc2ccccc2)[C@H]1O | > 50 µM | > 50 µM
19 | O[C@@H]1[C@@H](OCc2ccccc2)[C@H](OCc2ccccc2)[C@@H](COCc2ccccc2)O[C@H]1c1ccccc1 | > 50 µM | > 50 µM
20 | CCC[C@H]1O[C@H](COCc2ccccc2)[C@@H](OCc2ccccc2)[C@H](OCc2ccccc2)C1=O | > 50 µM | > 50 µM
21 | CCC[C@@H]1O[C@H](COCc2ccc3ccccc3c2)[C@@H](OCc2ccc3ccccc3c2)[C@H](OCc2ccc3ccccc3c2)[C@H]1OC(C)=O | > 50 µM | > 50 µM
22 | CC(=O)O[C@@H]1[C@@H](OC(C)=O)[C@H](Cc2ccccc2)O[C@H](COCc2ccccc2)[C@H]1OC(C)=O | > 50 µM | > 50 µM
23 | CC(C)C[C@@H]1O[C@H](COCc2ccccc2)[C@@H](OCc2ccccc2)[C@H](OCc2ccccc2)C1=O | > 50 µM | > 50 µM
24 | c1ccc(COC[C@H]2O[C@@H](Cc3ccccc3)[C@H](OCc3ccccc3)[C@@H](OCc3ccccc3)[C@@H]2OCc2ccccc2)cc1 | > 50 µM | > 50 µM
25 | CC(=O)O[C@@H]1[C@@H](OCc2ccccc2)[C@H](OCc2ccccc2)[C@@H](COCc2ccccc2)O[C@H]1C | > 50 µM | 8.8 µM
26 | CC(=O)O[C@@H]1[C@@H](OCc2ccccc2)[C@H](OCc2ccccc2)[C@@H](COCc2ccccc2)O[C@@H]1CC(C)C | > 50 µM | > 50 µM
27 | CCCCC[C@@H]1O[C@H](COCc2ccccc2)[C@@H](OCc2ccccc2)[C@H](OCc2ccccc2)C1=O | > 50 µM | > 50 µM
28 | CCCC[C@@H]1O[C@H](COCc2ccccc2)[C@@H](OCc2ccccc2)[C@H](OCc2ccccc2)[C@H]1O | > 50 µM | 40.1 µM

Now from value to compound, other results behind:

Row | GI50 [1] | Structure (SMILES) | GI50 [2]
29 | 17.4 µM | O[C@@H]1[C@@H](OCc2ccccc2)[C@H](OCc2ccccc2)[C@@H](COCc2ccccc2)O[C@H]1Cc1ccccc1 | 29.2 µM
30 | > 50 µM | CCCCCCCCCCCCCCCOC[C@H]1O[C@@H](CCC)[C@H](O)[C@@H](OCCCCCCCCCCCCCCC)[C@@H]1OCCCCCCCCCCCCCCC | > 50 µM
31 | > 50 µM | O[C@H]1CO[C@H](COCc2ccccc2)[C@@H](OCc2ccccc2)[C@@H]1OCc1ccccc1 | 37.9 µM
32 | > 50 µM | ClC1(Cl)[C@@H]2[C@@H](OCc3ccccc3)[C@H](OCc3ccccc3)[C@@H](COCc3ccccc3)O[C@@H]21 | 1.6 µM
33 | > 50 µM | C=CC[C@@H]1O[C@H](COCc2ccccc2)[C@@H](OCc2ccccc2)[C@H](OCc2ccccc2)[C@H]1OC(C)=O | 11 µM
34 | > 50 µM | C=CC[C@@H]1O[C@H](COCc2ccccc2)[C@@H](OCc2ccccc2)[C@H](OCc2ccccc2)C1=O | 7.6 µM
35 | > 50 µM | O[C@@H]1[C@@H](OCc2ccccc2)[C@H](OCc2ccccc2)[C@@H](COCc2ccccc2)O[C@H]1CC1CC1 | > 50 µM
36 | 38 µM | OC[C@H]1O[C@@H](Cc2ccccc2)[C@H](O)[C@@H](OCc2ccccc2)[C@@H]1OCc1ccccc1 | 31.6 µM
37 | 24.6 µM | CC(C)C[C@@H]1O[C@H](COCc2ccccc2)[C@@H](OCc2ccccc2)[C@H](OCc2ccccc2)[C@@H]1O | 26.3 µM
38 | 33.3 µM | c1ccc(COC[C@H]2OCC[C@@H](OCc3ccccc3)[C@@H]2OCc2ccccc2)cc1 | 22.2 µM
39 | 28.7 µM | CCCCCCCCCCCCCCCOC[C@H]1O[C@H](CCC)[C@H](O)[C@@H](OCCCCCCCCCCCCCCC)[C@@H]1OCCCCCCCCCCCCCCC | 29.9 µM
40 | 26.2 µM | C=CC[C@@H]1O[C@H](COCc2ccccc2)[C@@H](OCc2ccccc2)[C@H](OCc2ccccc2)[C@H]1O | 44.1 µM
41 | 43.9 µM | CC(C)C[C@H]1O[C@H](COCc2ccccc2)[C@@H](OCc2ccccc2)[C@H](OCc2ccccc2)[C@H]1O | 44.5 µM
42 | 19.8 µM | CC[C@@H]1O[C@H](COCc2ccccc2)[C@@H](OCc2ccccc2)[C@H](OCc2ccccc2)[C@H]1O | 34.2 µM
43 | 17.4 µM | CCC[C@H]1O[C@H](COCc2ccccc2)[C@@H](OCc2ccccc2)[C@H](OCc2ccccc2)[C@H]1O | 23.6 µM
44 | 5.6 µM | CCC[C@H]1O[C@H](COCc2ccc(F)cc2)[C@@H](OCc2ccc(F)cc2)[C@H](OCc2ccc(F)cc2)[C@H]1O | > 50 µM
45 | 25.8 µM | OC[C@@H]1O[C@H](COCc2ccccc2)[C@@H](OCc2ccccc2)[C@H](OCc2ccccc2)[C@H]1O | 27.3 µM
46 | 30.2 µM | OCC[C@@H]1O[C@H](COCc2ccccc2)[C@@H](OCc2ccccc2)[C@H](OCc2ccccc2)[C@H]1O | 39.7 µM
47 | 5.4 µM | CC(=O)O[C@@H]1[C@@H](OCc2ccccc2)[C@H](OC(C)=O)[C@@H](COCc2ccccc2)O[C@H]1Cc1ccccc1 | 6.1 µM
48 | 9.5 µM | O[C@@H]1[C@@H](OCc2ccccc2)[C@H](OCc2ccccc2)[C@@H](COCc2ccccc2)O[C@H]1CC1CCCCC1 | 4.4 µM
49 | 47.9 µM | O[C@@H]1[C@@H](O)[C@H](Cc2ccccc2)O[C@H](COCc2ccccc2)[C@H]1OCc1ccccc1 | 33.5 µM
50 | 12.3 µM | CCC[C@@H]1O[C@H](COCc2ccc(F)cc2)[C@@H](OCc2ccc(F)cc2)[C@H](OCc2ccc(F)cc2)[C@H]1O | 17.2 µM
51 | 23.3 µM | CCC[C@@H]1O[C@H](COCc2ccccc2)[C@@H](OCc2ccccc2)[C@H](OCc2ccccc2)[C@@H]1O | > 50 µM
52 | 18.9 µM | CCC[C@@H]1O[C@H](COCc2ccccc2)[C@@H](OCc2ccccc2)[C@H](OCc2ccccc2)[C@H]1O | 38.6 µM
